Patent EP0932387B1 (UNILEVER PLC, priority 1996, dated 1998)
Like-named read-outs stand apart in the source and are kept apart here.

Legend:
[1] = tested on: acyl CoA retinol transferase (ARAT); assay: In vitro Microsomal Assay, ARAT catalyzed retinol esterification (retinyl palmitate formation); assay type: biochemical, bovine
Experimental: (§2) A solution containing 0.1M sodium phosphate pH 7 buffer, 5mM dithiothreitol, 2 mg/ml bovine serum albumin, 40 micromolar palmitoyl CoA, 40 micromolar dilauroyl phosphatidyl choline, 10 micromolar retinol and a test compound or a solvent blank, is incubated for 1 hour at 37°C with a microsomal fraction isolated from bovine retinal pigment epithelial cells. After incubation, the reaction is quenched by addition of an equal volume of ethanol, and the retinyl esters formed (retinyl laurate from the LRAT catalyzed reaction and retinyl palmitate from ARAT catalyzed reaction) are extracted with hexane.
(§3) A solution containing 0.1M sodium phosphate pH 7 buffer, 5mM dithiothreitol, 2 mg/ml bovine serum albumin, 40 micromolar palmitoyl CoA, 40 micromolar dilauroyl phosphatidyl choline, 10 micromolar retinol and a test compound or solvent blank, was incubated for 1 hour at 37°C with a microsomal fraction isolated from bovine retinal pigment epithelial cells. After incubation, the reaction was quenched by addition of an equal volume of ethanol, and the retinyl esters formed (retinyl palmitate from the ARAT catalyzed reaction, and retinyl laurate from the LRAT catalyzed reaction) were extracted with hexane.

[2] = tested on: Human keratinocytes; assay: Transglutaminase Assay (TGase I ELISA, procedure for other Examples), normalized to DNA; keratinocyte differentiation; assay type: cell-based; details: for % Control: transglutaminase normalized to DNA; for activity at 1 µM: 1 micromolar, read-out: % of Control; for TGase/ DNA (% control) / mean TGase/ DNA x10^5 ± s.d: 72 hour treatment; for mean TGase/ DNA x10^5 ± s.d: n = 3
Experimental: (§1) Human keratinocytes, isolated from neonatal foreskin by trypsin treatment were grown in Dulbecco Modification Eagle (DME) Hams F12 (1:1) medium/10% fetal calf serum in the presence of irradiated 3T3 mouse fibroblasts for establishing dividing keratinocyte colonies. Cells were grown under the above condition until their second passage and kept frozen for future use. Frozen second passage keratinocytes were thawed and plated into the above medium and grown for five days before they were switched to a serum-free MCDB 153-based medium keratinocyte growth medium (KGM) from Clonetics Corporation, San Diego, CA, containing 0.15 mM Ca, or keratinocyte serum-free media (KSFM) from GIBCO containing 0.09 mM Ca). On day 7, when the cells were 80-90% confluent, they were trypsinized and plated in the serum-free medium for the various experiments.
During the process of terminal differentiation in the epidermis, a 15nm thick layer of protein, known as the cornified envelope (CE) is formed on the inner surface of the cell periphery. The CE is composed of numerous distinct proteins which have been cross-linked together by the formation of N^ε-(γ-glutamyl) lysine isodipeptide bonds catalyzed by the action of at least two different transglutaminases (TGases) expressed in the epidermis. Transglutaminase I (TGase I) is expressed in abundance in the differentiated layers of the epidermis, especially the granular layer, but is absent in the undifferentiated basal epidermis. Thus TGase I is a useful marker of epidermal keratinocyte differentiation with high TGase I levels indicating a more differentiated state. An ELISA based TGase I assay, using a TGase I antibody, was used to assess the state of differentiation of the cultured keratinocytes in the examples that follow.
Keratinocytes (cultured as described above) were plated in 96 well plates at a density of 3,000 cells per well in 200µl of cell culture media. After incubation for four days, the media was changed to media containing test compounds (six replicates per test). The cells were cultured for a further 72 hours after which time the media was aspirated and the plates stored at -70°C. After the plates were removed from the freezer, the cells were further freezed fractured by freezing and thawing and then washed 3x with PBS. The cells were incubated for one hour at room temperature (R/T) with TBS/5% BSA buffer. Cells were then incubated with 100µl of monoclonal anti-human transglutaminase (IgG) mouse antibody (primary antibody) obtained from Biomedical Technologies Inc. diluted 1:2000 in TBS/1% BSA buffer for two hours at 37°C, and then rinsed six times with wash buffer (TBS/1% BSA/0.05% Tween-20). Cells were next incubated with 100µl of Fab fragment, peroxidase conjugated anti-mouse IgG antibody (secondary antibody) from Amersham diluted 1:4,000 in wash buffer for two hours at 37°C and then rinsed three times with wash buffer and three times with PBS. Cells were incubated with substrate solution (4mg o-phenylene diamine and 3.3µl 30% H2O2 in 10mL 0.1M citrate buffer, pH 5.0) for five minutes at R/T and in darkness (under aluminum foil). The reaction was stopped by the addition of 50µl 4N H2SO4. The absorbance of samples was read at 492nm in the plate reader. Out of the six replicates, four were treated with both antibodies, two were treated only with the secondary antibody (i.e., to determine the background binding of the enzyme conjugated antibody). Transglutaminase I levels were determined by subtracted background from the readings from each treatment and determining the mean ± s.d. for the replicates exposed to both antibodies.
The level of TGase I detected after treatment of the cells could be influenced by cell number, i.e., the greater the number of cells the greater the level of TGase-1 detected. The level of Tgase I was normalized to DNA content of the cells in the same well thus eliminating variation due to differences in cell number. […]

[3] = target: T1, lecithin retinol acyl transferase (LRAT) (Bos taurus, UniProt Q9BGL2); assay: In vitro Microsomal Assay, LRAT catalyzed retinol esterification (retinyl laurate formation); assay type: biochemical, bovine
T1 construct: a microsomal fraction isolated from bovine retinal pigment epithelial cells; from tissue; host or cells: bovine retinal pigment epithelium, microsomal fraction
T1 sequence (Q9BGL2 1-230): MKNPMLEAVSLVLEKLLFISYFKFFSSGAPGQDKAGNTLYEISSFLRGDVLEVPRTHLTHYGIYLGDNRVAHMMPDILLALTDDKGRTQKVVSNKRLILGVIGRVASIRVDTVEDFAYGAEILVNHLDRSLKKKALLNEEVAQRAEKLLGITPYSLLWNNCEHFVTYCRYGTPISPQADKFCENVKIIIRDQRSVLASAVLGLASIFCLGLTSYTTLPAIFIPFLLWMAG
Experimental: as §2, §3

[4] = tested on: Human keratinocytes; assay: 3H-Thymidine incorporation, keratinocyte proliferation; assay type: cell-based; details: 250 nM
Experimental: as §1
The incorporation of ^3H-thymidine by cultured keratinocytes was used as an assay of keratinocyte proliferation. Thymidine is one of four deoxynucleosides which are the monomeric units of DNA, the universal library of genetic information in the animal kingdom. Prior to cell division of a somatic cell such as a keratinocyte, the complete genome of the cell undergoing cell division is replicated. This involves large scale DNA synthesis by the cell and enables both daughter cells to receive identical copies of the genetic material. When ^3H-thymidine is included in the culture media of keratinocytes which are synthesizing DNA in preparation for cell division then the labelled nucleoside is incorporated into the newly synthesized DNA. The extent of incorporation of ^3H-thymidine into a population of cells is proportional to the rate of DNA synthesis by this population of cells and therefore an indication of their cellular proliferation.
Keratinocytes (that were cultured as described above) were plated in 24 well plates at a density of 20,000 cells per well in 1 ml media. After incubation for four days or until the cells were 60-70% confluent, the media was changed. Test compounds were added (in triplicate) to the wells 24 hours after the media change, and four hours later 1µCi ^3H-Thymidine in 50 µl media was added per well. Cells were incubated for a further 24 hours. Media was removed from the cells, 10% ice cold trichloroacetic acid (TCA) added and plates were incubated on ice for 30 minutes. Cells were washed five times with 5% TCA and allowed to dissolve in 500 µl 0.1M NaOH for at least one hour (usually overnight). The preparations were neutralized with 0.1M HCl; 50 µl of the cell preparation was used to determine total protein content. Disintegrations per minute (DPM) from ^3H labelling of DNA was determined by liquid scintillation counting of 900µl of the cell preparation. Thymidine incorporation results were expressed as DPM/µg protein.

[5] = tested on: Human keratinocytes; assay: Transglutaminase Assay (TGase I ELISA, Example 1 procedure), normalized to DNA; keratinocyte differentiation; assay type: cell-based; details: 2.5 x 10^-7M, 2.5 x 10^-8M and 2.5x10^-9M, vs ethanol control
Experimental: as §1, with “experiments. […]” for “experiments.”
Keratinocytes (cultured as described above) were plated in 96 well plates at a density of 3,000 cells per well in 200 µl media. […] The absorbance of samples was read at 492nm in the plate reader. […] TGase levels were determined by subtracting background from the readings from each treatment and determining mean ± s.d. for the replicates exposed to both antibodies.
The level of TGase I detected after treatment of the cells could be influenced by cell number, i.e., the greater the number of cells the greater the level of TGase-1 detected. […]

[6] = Table 2, 100 µM, read-out: % INHIB. LRAT
[7] = Table 10, 100 µM, read-out: % INHIBITION, LRAT
[8] = Table 5A, 100µM, read-out: % INHIBITION, LRAT

## C/C=C/C(=O)C1C(C)=CCCC1(C)C (stereo not drawn) [alpha damascone]
[1]; Table 5A, 100µM
  % INHIBITION, ARAT: 83%
[1]; Table 5B, 10µM
  % INHIBITION, ARAT: 67%
[2]; Table 7, experiment 1, 1 mM
  % Control: 92%
[2]; Table 7, experiment 2, 1 mM
  % Control: 86%

## CCCCCCCCCCCC1=NCCN1CCO [Lauryl, lauryl hydroxyethyl imidazoline]
[3]; Table 3, 10 micromolar, read-out: % INHIB. LRAT
  inhibition at 10 µM: 0%
[3]; Table 3, 100 micromolar, read-out: % INHIB. LRAT
  inhibition at 100 µM: 47%

## CCCCCCCC/C=C\CCCCCCCC1=NCCN1CCO [oleyl hydroxyethyl imidazoline]
[2]; Homo sapiens, Keratinocyte, Table 4, Exp 1
  activity at 1 µM: 80.7%
[2]; Homo sapiens, Keratinocyte, Table 4, Exp 2
  activity at 1 µM: 78.2%
[2]; Homo sapiens, Keratinocyte, Table 4, Exp 3
  activity at 1 µM: 91.1%

## CCCCCCCCC=CCCCCCCCC(=O)NCCC[N+](C)(C)CC(=O)[O-] [oleamidopropyl betaine]
[3]; [6]
  inhibition at 100 µM: 0%

## CC1=C(/C=C/C(C)=C/C=C/C(C)=C/C(=O)O)C(C)(C)CCC1 [retinoic acid]
[2]; Table 11, 2.5x10^-7M
  TGase/ DNA (% control): 42%
  mean TGase/ DNA x10^5 ± s.d: 22.47 ± 2.31
[2]; Table 12, 2.5x10^-7M
  TGase/ DNA (% control): 32%
  mean TGase/ DNA x10^5 ± s.d: 16.31 ± 2.58
[2]; Table 13, 2.5x10^-7M
  TGase/ DNA (% control): 52%
[4]; Table 9A, Experiment #1
  % Control: 156%
  DPM/Microgram Protein mean: 3013 DPM/Microgram Protein
[4]; Table 9B, Experiment #2
  % Control: 163%
  DPM/Microgram Protein mean: 1494 DPM/Microgram Protein

## O=c1c(O)c(-c2ccc(O)c(O)c2)oc2cc(O)cc(O)c12 [Quercetin, quercetin]
[1]; Table 10, 100 µM
  % INHIBITION, ARAT: 25%
[3]; [7]
  inhibition at 100 µM: 14%

## CCCCCCCCCCCC(=O)N(C)CC(=O)O [lauroyl sarcosine]
[1]; Table 2, 100 µM
  % INHIB. ARAT: 20%
[3]; [6]
  inhibition at 100 µM: 0%

## C/C=C/C(=O)C1CCC(C)(C)C=C1C (stereo not drawn) [isodamascone]
[1]; Table 5A, 100µM
  % INHIBITION, ARAT: 80%
[3]; [8]
  inhibition at 100 µM: 92%

## CCCCCCCCCCCCCCCC(=O)OC/C=C(C)/C=C/C=C(C)/C=C/C1=C(C)CCCC1(C)C [retinyl palmitate]
[2]; Homo sapiens, Keratinocyte, Example 12, 2.5x10^-9M, read-out: keratinocyte TGase I level (% of control)
  activity at […]: 93%
[2]; Table 12, 2.5x10^-8M
  TGase/ DNA (% control): 93%
  mean TGase/ DNA x10^5 ± s.d: 47.32 ± 4.22

## CCC(=O)/C=C/C1C(C)=CCCC1(C)C (stereo not drawn) [alpha methyl ionone]
[3]; [8]
  inhibition at 100 µM: 77%

## CCCCCCCCC=CCCCCCCCC[N+](C)(C)[O-] [oleamine oxide]
[3]; [6]
  inhibition at 100 µM: 0%

## CC1=C(/C=C/C(C)=C/C=C/C(C)=C/CO)C(C)(C)CCC1 [retinol]
[5]
  Transglutaminase levels normalized to DNA content of the cells: decrease in transglutaminase level was dose dependent
[2]; Table 7, experiment 1, 0.001 mM
  % Control: 67%
[2]; Table 11, 2.5x10^-9M
  TGase/ DNA (% control): 91%
  mean TGase/ DNA x10^5 ± s.d: 48.31 ± 5.31
[2]; Table 11, 2.5x10^-9M, listed as Retinol
  TGase/ DNA (% control): 92%
[2]; Table 13, 2.5x10^-7M
  TGase/ DNA (% control): 90%
[4]; Table 9A, Experiment #1
  % Control: 108%
  DPM/Microgram Protein mean: 2082 DPM/Microgram Protein
[4]; Table 9B, Experiment #2
  % Control: 107%
  DPM/Microgram Protein mean: 974 DPM/Microgram Protein

## O=C1C[C@@H](c2ccc(O)cc2)Oc2cc(O)cc(O)c21 [Naringenin, naringenin]
[1]; Table 10, 100 µM
  % INHIBITION, ARAT: 33%
[3]; [7]
  inhibition at 100 µM: 14%
[2]; Table 11, 10^-7M
  TGase/ DNA (% control): 94%
  mean TGase/ DNA x10^5 ± s.d: 49.84 ± 2.76
[2]; Table 12, 10^-8M
  TGase/ DNA (% control): 89%
  mean TGase/ DNA x10^5 ± s.d: 45.01 ± 1.90

## CCOC(=O)C1=C(C)C=CCC1(C)C [ethyl saffranate]
[3]; [8]
  inhibition at 100 µM: 49%

## CC(=O)c1cc2c(cc1C)C(C)(C)C(C)C2C(C)C (stereo not drawn) [traseolide]
[1]; Table 5A, 100µM
  % INHIBITION, ARAT: 41%
